Data reported in EP4606382A1, “INHIBITORS OF TANGO1 ACTIVITY AND METHODS OF USE THEREOF” (Fundació Centre de Regulació Genòmica, priority 2024, dated 2025).
Ends that are not written are not given here.

Test system: normal human skin fibroblasts
Assay: LDH release cytotoxicity assay
Type: cell-based
Settings: primary human skin fibroblasts
Method: To test if the peptides efficiently reduce collagen secretion also in primary cells derived from human individuals, normal human skin fibroblasts, the key producers of collagen in connective tissues, were treated with the peptides P2 and P5.
Cytotoxic effects induced by peptide treatment were determined by lactate dehydrogenase (LDH) levels in fibroblast supernatants using Cytotoxicity Assay (Promega G1780) according to the manufacturer's instructions.

| Substance | cytotoxic effects (LDH release) |
| --- | --- |
| LRQKVEILNELYQQKEMALQKKLSQEEYERGLRKRLRKFRNK-NH2 [Peptide P2] | neither P2 nor P5 nor P2+P5 exerted cytotoxic effects |
| LEKEEKLSKVDEKISHATEELETYRKRAKDLGLRKRLRKFRNK-NH2 [Peptide P5] | neither P2 nor P5 nor P2+P5 exerted cytotoxic effects |
